Like-named read-outs stand apart in the source and are kept apart here.

What all share (assay type): cell-based, human
Test [1] relates to HL-60. Put plainly: Cytotoxicity test (ViaLight Plus cell proliferation) on HL-60. The note with it: 72 hours' incubation, cell viability vs 0.5% DMSO control; for IC50: HL-60, 72 h, read-out: EC50 HL-60. An excerpt: (§1) The effects of the compounds of the invention on the proliferation of cancer cells were studied on different human cancer cell lines of different tissue origin (MCF-7: breast cancer, MCF-7/adr adriamycin-resistant breast cancer, HL-60: acute promyelocytic leukaemia, HL-60/R10: doxorubicin-resistant acute promyelocytic leukaemia, HT29: colon adenocarcinoma, Mia Paca2: pancreatic tumour, Panc-1: pancreatic exocrine tumour, SK-OV-3: cisplatin- and adriamycin resistant ovarian cancer). The cancer cells used for this study were incubated at 37° C. in the presence of one of the compounds of the invention added to the culture medium at different concentrations.
(§2) The cancer cell lines were obtained from ATCC (American Type Culture Collection) for MCF-7, from Hôpital de la Pitié Salpetrière for MCF-7/adr and from Oncodesign (Dijon, France) for HL-60, HL-60/R10, HT29, MiaPaCa2, Panc-1 and SK-OV-3. They were cultured in RPMI 1640 medium containing 2 mM L-Glutamine supplemented with 10% foetal calf serum (Lonza; Verviers, Belgium). All the cell lines were held in culture at 37° C. in a humid atmosphere containing 5% CO2. Cell proliferation was assessed using the ViaLight® Plus Assay Kit (Lonza; Verviers, Belgium) following the manufacturer's instructions. The cells were seeded in 96-well culture plates compatible with luminescence read-off (white plates with transparent bottom) in a proportion of 5 000 to 10 000 cells per well in 100 μl of culture medium. After a pre-incubation time of 24 hours at 37° C., the compounds of the invention dissolved in dimethylsulfoxide (DMSO) were individually added to each well in a proportion of 0.5 μl per well. After 72 hours' incubation at 37° C. in a humid atmosphere containing 5% CO2, 50 μl of lysis buffer were added to each well and 15 minutes later 100 μl of ATP measuring agent were added. The plates were read under a luminometer to evaluate cell viability. The data obtained was processed by computer to obtain the EC50 value i.e. the concentration value of each of the compounds which induces 50% cell viability compared with a control value (0.5% DMSO alone).

Test [2] relates to HL-60/R10. Put plainly: Cytotoxicity test (ViaLight Plus cell proliferation) on HL-60/R10. Conditions: doxorubicin-resistant line, 72 hours' incubation, cell viability vs 0.5% DMSO control, read-out: EC50 HL60/R10; for IC50: HL-60, 72 h.
Source text: as §1, §2

Test [3] concerns MCF-7. The test is described as follows: Cytotoxicity test (ViaLight Plus cell proliferation) on MCF-7. The note with it: 72 hours' incubation, cell viability vs 0.5% DMSO control; for IC50: Homo sapiens, MCF7, 72 h, read-out: EC50 MCF-7.
Source text: as §1, §2

Test [4] deals with MCF-7/adr. Put plainly: Cytotoxicity test (ViaLight Plus cell proliferation) on MCF-7/adr. Conditions: adriamycin-resistant line, 72 hours' incubation, cell viability vs 0.5% DMSO control; for IC50: Homo sapiens, NCI/ADR-RES, 72 h, read-out: EC50 MCF-7/adr.
Source text: as §1, §2

For the compound `CC(C)[C@H]1CN(C(=O)C(c2ccc(F)cc2)N(C(=O)CCl)c2ccc(Oc3ccccc3)cc2)CCN1` (single isomer, unassigned) [I-3 dia1], the EC50 worked out at 1310 nM in test [1], 15 nM in test [2], 927 nM in test [3] and 55 nM in test [4].
In the case of `CC(C)[C@@H]1CN(C(=O)C(c2ccc(F)cc2)N(C(=O)CCl)c2ccc(Oc3ccccc3)cc2)CCN1` (single isomer, unassigned) [I-4 dia1], the EC50 in test [1] is 648 nM; in test [2], 4 nM; in test [3], 315 nM; in test [4], 13 nM.
For `CC(C)[C@@H]1CN(C(=O)C(c2ccc(F)cc2)N(C(=O)CCl)c2ccc(Oc3ccccc3)cc2)CCN1` (single isomer, unassigned) [I-4 dia2], the EC50 in test [1] came out at 1320 nM; in test [2], 62 nM; in test [3], 863 nM; in test [4], 166 nM.
With `Cc1cc(Oc2ccccc2)ccc1N(C(=O)CCl)C(C(=O)N1CCN[C@@H](C(C)C)C1)c1ccc(F)cc1` (single isomer, unassigned) [I-7 dia1], the IC50 in test [1] (Homo sapiens) and in test [3] was 2500 nM each time. In addition, the EC50 in test [2] was 604 nM; in test [4], 618 nM.
With `Cc1cc(Oc2ccccc2)ccc1N(C(=O)CCl)C(C(=O)N1CCN[C@H](C(C)C)C1)c1ccc(F)cc1` (single isomer, unassigned) [I-8 dia1], the IC50 in test [1] (Homo sapiens) was found to be 2030 nM; in test [3], 1740 nM. Further, the figures for the EC50 in test [2] and in test [4] were 54 nM and 148 nM, respectively.
As to `Cc1cc(Oc2ccccc2)ccc1N(C(=O)CCl)C(C(=O)N1CCN[C@H](C(C)C)C1)c1ccc(F)cc1` (single isomer, unassigned) [I-8 dia2], the EC50 worked out at 1740 nM in test [1], 312 nM in test [2], 2410 nM in test [3] and 477 nM in test [4].
For `CC[C@@H]1CN(C(=O)C(c2ccc(F)cc2)N(C(=O)CCl)c2ccc(Oc3ccccc3)cc2)CCN1C(=O)OC(C)(C)C` (single isomer, unassigned; dia1) [I-20 dia1] the same measures were 196 nM, 80 nM, 1570 nM and 73 nM.
For `C[C@H]1CN(C(=O)C(c2ccc(F)cc2)N(C(=O)CCl)c2ccc(Oc3ccccc3)cc2)CCN1` (single isomer, unassigned; dia1) [I-21 dia1], in that order: 2450 nM, 13 nM, 1950 nM and 93 nM.
For `C[C@@H]1CN(C(=O)C(c2ccc(F)cc2)N(C(=O)CCl)c2ccc(Oc3ccccc3)cc2)CCN1` (single isomer, unassigned; dia1) [I-22 dia1] the same measures were 2000 nM, 17 nM, 569 nM and 131 nM.
As to `Cc1cc(OC(C)C)ccc1N(C(=O)CCl)C(C(=O)N1CCN[C@@H](C(C)C)C1)c1ccc(F)cc1` (single isomer, unassigned; dia1) [I-26 dia1], the EC50 in test [1] came out at 2450 nM; in test [2], 13 nM; in test [3], 1950 nM; in test [4] it was 93 nM.
For `Cc1cc(OC(F)(F)F)ccc1N(C(=O)CCl)C(C(=O)N1CCN[C@@H](C(C)C)C1)c1ccc(F)cc1` (single isomer, unassigned; dia1) [I-27 dia1], in that order: 2000 nM, 17 nM, 569 nM and 131 nM.
For `Cc1cc(Oc2ccccc2)ccc1N(C(=O)CCl)C(C(=O)N1CCN(C(=O)OC(C)(C)C)C(C(=O)NCc2ccccc2)C1)c1cccs1` (single isomer, unassigned; dia1) [I-53 dia1], in that order: 1980 nM, 645 nM, 2060 nM and 462 nM.
For `CC[C@H]1CN(C(=O)C(c2ccc(F)cc2)N(C(=O)CCl)c2ccc(Oc3ccccc3)cc2C)CCN1` (single isomer, unassigned; dia2) [I-17 dia2] the same measures were 1600 nM, 49 nM, 1990 nM and 152 nM.
For the compound `CC[C@@H]1CN(C(=O)C(c2ccc(F)cc2)N(C(=O)CCl)c2ccc(Oc3ccccc3)cc2C)CCN1` (single isomer, unassigned; dia2) [I-18 dia2], the EC50 in test [1] is 352 nM; in test [2], 44 nM; in test [3], 591 nM; in test [4], 152 nM.
For `C[C@H]1CN(C(=O)C(c2ccc(F)cc2)N(C(=O)CCl)c2ccc(Oc3ccccc3)cc2)CCN1` (single isomer, unassigned; dia2) [I-21 dia2] the same measures were 630 nM, 8 nM, 869 nM and 10 nM.
For `C[C@@H]1CN(C(=O)C(c2ccc(F)cc2)N(C(=O)CCl)c2ccc(Oc3ccccc3)cc2)CCN1` (single isomer, unassigned; dia2) [I-22 dia2] the same measures were 1150 nM, 18 nM, 430 nM and 34 nM.
For `Cc1cc(OC(C)C)ccc1N(C(=O)CCl)C(C(=O)N1CCN[C@@H](C(C)C)C1)c1ccc(F)cc1` (single isomer, unassigned; dia2) [I-26 dia2], in that order: 630 nM, 8 nM, 869 nM and 10 nM.
Take `Cc1cc(OC(F)(F)F)ccc1N(C(=O)CCl)C(C(=O)N1CCN[C@@H](C(C)C)C1)c1ccc(F)cc1` (single isomer, unassigned; dia2) [I-27 dia2]: the EC50 in test [1] was determined as 1150 nM; in test [2] it was 18 nM; in test [3], 430 nM; in test [4] it was 34 nM.
`Cc1cc(Oc2ccccc2)ccc1N(C(=O)CCl)C(C(=O)N1CCN(C(=O)OC(C)(C)C)[C@@H](C)C1)c1ccc(F)cc1` (stereo partly drawn) [Example I-9]: the IC50 in test [1] (Homo sapiens) came out at 771 nM; in test [2] (Homo sapiens), 99 nM; in test [3], 2500 nM; in test [4], 108 nM.
As to `Cc1cc(Oc2ccccc2)ccc1N(C(=O)CCl)C(C(=O)N1C[C@@H](C)N(C(=O)OC(C)(C)C)[C@@H](C)C1)c1ccc(F)cc1` (stereo partly drawn) [Example I-10], the IC50 in test [1] (Homo sapiens) is 641 nM; in test [2] (Homo sapiens), 131 nM; in test [3] it was 2500 nM; in test [4], 151 nM.
For `Cc1cc(Oc2ccccc2)ccc1N(C(=O)CCl)C(C(=O)N1CCN(C(=O)OC(C)(C)C)[C@H](C)C1)c1ccc(F)cc1` (stereo partly drawn) [Example I-11], in that order: 939 nM, 68 nM, 2500 nM and 102 nM.
In the case of `Cc1cc(Oc2ccccc2)ccc1N(C(=O)CCl)C(C(=O)N1CCN[C@@H](C)C1)c1ccc(F)cc1` (stereo partly drawn) [Example I-12], the IC50 was 2320 nM in test [1] (Homo sapiens), 82 nM in test [2] (Homo sapiens), 1790 nM in test [3] and 421 nM in test [4]. The EC50 in test [1] (Homo sapiens, HL-60) amounted to 2320 nM; in test [2] (Homo sapiens, HL-60) it was 82 nM.
Turning to `Cc1cc(Oc2ccccc2)ccc1N(C(=O)CCl)C(C(=O)N1CCN[C@H](C)C1)c1ccc(F)cc1` (stereo partly drawn) [Example I-13], the IC50 in test [1] (Homo sapiens) was 1990 nM; in test [2] (Homo sapiens), 88 nM; in test [3], 2500 nM; in test [4], 532 nM. Also, the EC50 in test [1] (Homo sapiens, HL-60) worked out at 1990 nM; in test [2] (Homo sapiens, HL-60), 88 nM.
On to `Cc1cc(Oc2ccccc2)ccc1N(C(=O)CCl)C(C(=O)N1C[C@@H](C)N[C@@H](C)C1)c1ccc(F)cc1` (stereo partly drawn) [Example I-14], for which the IC50 in test [1] (Homo sapiens) worked out at 1850 nM; in test [2] (Homo sapiens) it was 95 nM; in test [3], 2500 nM; in test [4], 232 nM. Moreover, the EC50 in test [1] (Homo sapiens, HL-60) worked out at 1850 nM; in test [2] (Homo sapiens, HL-60) it was 95 nM.

These data come from patent US9877962B2, “Piperazinyl derivatives for the treatment of cancer” (priority 2011, dated 2018).
